Results: US8617563B2, “Antichlamydial agents” (Duke University, priority 2011, dated 2013)
“Also recorded” adds a separate entry of the source. Where no end group is shown, it is not given here.

Tests used:
CPAF = CPAF (Chlamydia trachomatis serovar D, UniProt O84866); type: biochemical, C. trachomatis; design: 6xHis; made in house; host or cells: E. coli (pET30b); settings: GST-chlamydial substrates in presence of peptides
Description: FIG. 4 depicts (A) Recombinant Chlamydia ORFs were tested for sensitivity to host and bacterial derived proteases. […] Purified his-tagged CPAF was incubated with GST-tagged chlamydial substrates at 37° C. for 20 min with increasing amounts of lactacystin. Cleavage products were run on an SDS PAGE gel and visualized with Coomassie blue staining. (C) Schematic summary of CPAF targets. […] Membranes from Chlamydia-infected HeLa cells were harvested and purified at 0, 24, 36 and 48 hours post-infection, and the abundance of the chlamydial proteins Ct005, IncC and IncD were monitored with specific antibodies. Na/K ATPase and IncG served as host and bacterial-loading controls, respectively.
Cytosols from Chlamydia-infected HeLa cells (40 hrs) or recombinant his-tagged CPAF were pre-treated with rabbit polyclonal anti-CPAF or anti-IncA antisera, and incubated with GST-tagged Chlamydia proteins for 20 min at 37° C. […] Three example proteins shown include a type-III secretion (T3S) core component (CdsQ) a T3S chaperone (Mcsc) and a T3S needle component (Ct584). Processing of recombinant proteins in A-B were monitored by immunoblot analysis with specific antibodies. (C) Protease inhibitor profile of recombinant CPAF. Example shown for the chlamydial substrate GST-IncC. Degradation products were visualized by SDS-PAGE followed by staining with Coomassie blue. […]
Uninfected and HeLa cells pre-infected with L2 for 30 hrs were treated with inhibitory peptides and infected with EBs for 10 min Tarp translocation was indirectly visualized with an anti-phosphotyrosine antibody (A) and quantified by counting 50 separate cells (B). The stability of newly translocated Tarp was assessed by infecting cells as in (A) but with S^35-labeled EBs, followed by sequential immunoprecipitation of Tarp and MOMP and Phosphoimager analysis of precipitated material (C (I-IV)). […] IC50 values were determined by assessing CPAF cleavage of an Abz-tagged CPAF substrate (SEQ ID NO:9) by HPLC. […] Extracellular bacteria were determined. […] The number of internalized EBs was quantified per cell (H). […]

C. muridarum = C. muridarum growth in HeLa cells (recovered IFUs); type: cell-based; settings: infected HeLa cells, recovered IFUs
Description: Cells were infected with an MOI of 1 and treated with CPAF inhibitor (SEQ ID NO:7) or control (SEQ ID NO:11) peptides at 12 hpi, fixed at 24 hpi and analyzed by IF with anti-L2 polyclonal antisera. Inclusion size was determined by measuring the inclusion diameter in μm by confocal microscopy of 50 infected cells. The number of cells with fragmented inclusions was determined by counting the number of infected cells out of 50 with more than one inclusion. (C) Sequence alignment and % sequence identify of full length CPAF and predicted inhibitory peptide sequence between C. trachomatis serovar LGV-L2, Chlamydia muridarum, and Chlamydophila caviae was determined using Geneious software (available at the Geneious website). […] GPIC or C. muridarum infected whole cell protein lysate was preincubated with SEQ ID NO:7 peptide or SEQ ID NO:11 control peptide, mixed with GST-IncC at 37° C., resolved by SDS-PAGE and stained with Coomassie blue. […] Inhibition of C. muridarum (E) and C. ceviae (F) growth was determined by counting the number of recovered IFUs. […] Inclusions were detected by IF with anti-LGV-L2 (A, B, E) antisera or anti-chlamydial LPS (F) monoclonal antibodies, and host nuclei sere detected by staining.

[1] = system: epithelial cells infected with C. muridarum; test: Host cell death (condensed nuclei) in C. muridarum infected cells; type: cell-based; settings: dose-dependent, peptide at 12 hpi
Description: FIG. 12 depicts (A) low-magnification view of C. trachomatis LGV-L2 infected HeLa monolayers (30 h) treated with SEQ ID NO:7 or SEQ ID NO:11 peptides. (B) The frequency of condensed nuclei in treated cells is dependent on peptide concentration and Chlamydia infection. (C-D) Toxicity of CPAF inhibitors to Chlamydia-infected cells is observed in non-myeloid cells including human embryonic kidney cells HEK293 (C) and mouse embryo fibroblasts (D). […] (F-G) Cell death induced by anti-CPAF peptides requires Caspase-1 activation. HeLa cells infected with C. muridarum were treated with Ac-YVAD-CMK at 2 hpi, SEQ ID NO:7 peptide or SEQ ID NO:11 control peptide at 12 hpi and the percentage of infected cells with condensed nuclei was assessed at 48 hpi (F). Mouse lung fibroblasts (MLF) derived from congenic WT, ICE1^−/− and ASC^−/− animals were infected with C. muridarum and treated with the indicated concentrations of anti peptides 12 hpi. The percentage of infected cells with condensed nuclei was assessed at 48 hpi (G). LGV-L2 inclusions were immunostained with anti-L2 antisera and C. muridarum and C. caviae inclusions were immunostained with an anti-chlamydial LPS monoclonal antibody. Cell death in infected and uninfected cells treated with CPAF inhibitory peptides or control peptides was determined by counting the number of condensed nuclei of ˜1000 cells.

Sequence of CPAF (O84866 1-234, added parts left off): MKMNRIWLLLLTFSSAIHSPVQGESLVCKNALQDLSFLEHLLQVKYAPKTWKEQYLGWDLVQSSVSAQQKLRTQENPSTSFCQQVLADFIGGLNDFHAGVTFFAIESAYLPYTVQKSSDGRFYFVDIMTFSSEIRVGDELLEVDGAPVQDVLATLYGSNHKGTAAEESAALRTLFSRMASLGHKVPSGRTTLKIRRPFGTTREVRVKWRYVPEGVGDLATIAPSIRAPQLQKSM
Sequence of CPAF (O84866 276-601): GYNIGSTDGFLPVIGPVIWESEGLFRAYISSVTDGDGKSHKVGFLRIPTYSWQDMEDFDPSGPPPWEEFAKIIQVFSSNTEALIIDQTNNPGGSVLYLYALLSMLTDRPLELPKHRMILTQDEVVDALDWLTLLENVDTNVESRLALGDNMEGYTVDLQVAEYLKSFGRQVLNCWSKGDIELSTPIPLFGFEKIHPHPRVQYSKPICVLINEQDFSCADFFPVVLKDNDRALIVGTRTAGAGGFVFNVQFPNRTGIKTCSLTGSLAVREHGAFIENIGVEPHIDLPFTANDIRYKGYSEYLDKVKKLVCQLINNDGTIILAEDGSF

SLFYSPMVPHFWAELRNHYATSGLKRRRRRRRRR-NH2 [SEQ ID NO:7]
Inhibition of degradation of CPAF substrates in vitro (CPAF): broadly inhibited degradation of CPAF substrates
C. muridarum replication (C. muridarum): blocked C. muridarum replication; also recorded: impairs growth in C. muridarum
Number of condensed nuclei in C. muridarum infected cells [1]: marked increase in the number of condensed nuclei
